# In patent publication US20180228728A1, “DOSAGE FORM FOR ADMINISTRATION OF OPIOID ANTAGONISTS” (priority 2017, published 2018):
# Test system: cultured human gingival tissues
# Assay type: in vitro ADME
# Conditions: as excipient in naloxone ODF
# Description: Each ODF sample was die-cut into 1 inch (2.54 cm) diameter discs (area, 5.067 cm^2). To simulate the oral mucosa, an in vitro oral mucosa 3D model produced from primary human gingival keratinocytes was used (SkinAxis, LLC, North Brunswick, N.J., USA). Briefly, the cultured human gingival tissues were incubated in 6-well plates at 37° C. in a CO2 incubator. To prepare the receiver fluid, 0.3 mL of prewarmed phosphate buffered solution at pH 6.8 was pipetted into each well. Next, 0.5 mL of donor solution or the die-cut discs were placed onto the tissues. The plates were returned to the incubator for 15 minutes. The tissues were moved to the next wells and the receiver media was collected. This was repeated for the remaining time points. The receiver media was analyzed by HPLC in a 5 μm, 4.6×50 mm KINETEX C18 column (Phenomenex, Inc., Torrance, Calif., USA) using art standard protocols. Briefly, the mobile phase comprised 50 mM NH4Ac/Acetonitrile at 88/22. The flow rate was 1.0 mL/min and the column temperature was about 40° C. with a UV of 220 nm and a retention time of 1.8 min.
structure (smiles),measurement,value
"CCCCCCCC/C=C\CCCCCCCCO [oleyl alcohol, Oleyl alcohol]",effect of permeation enhancer on permeation percentage of the naloxone,increased the permeation percentage of the naloxone
